Reference: patent EP2140864A2 (H. Lundbeck A/S, priority 2001, dated 2002)
Like-named read-outs stand apart in the source and are kept apart here.

Tests used:
[1] = target: T1, human GAL3 receptor (Homo sapiens, UniProt O60755); test: Radioligand binding at cloned human GAL3 receptor; conditions: cloned human receptor, read-out: Ki GalR3
T1 construct: expressed in transfected cells
T1 sequence (O60755 1-368): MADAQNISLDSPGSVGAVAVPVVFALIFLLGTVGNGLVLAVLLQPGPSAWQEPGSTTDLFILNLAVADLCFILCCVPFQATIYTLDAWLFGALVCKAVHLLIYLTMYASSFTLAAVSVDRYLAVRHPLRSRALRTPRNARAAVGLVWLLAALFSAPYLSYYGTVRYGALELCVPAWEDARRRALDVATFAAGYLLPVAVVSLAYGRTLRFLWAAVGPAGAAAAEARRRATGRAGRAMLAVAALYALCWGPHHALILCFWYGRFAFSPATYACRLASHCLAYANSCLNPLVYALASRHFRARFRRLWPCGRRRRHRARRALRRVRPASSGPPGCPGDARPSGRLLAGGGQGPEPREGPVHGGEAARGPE
In short: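 Membranes from LM(tk-) cells stably expressing human GAL3, prepared in binding buffer (HEPES-based, pH 7.4), used for radioligand binding. Solvent at final assay concentration: 3% DMSO for indolones, 1% ethanol/0.09% pluronic F-127 for pyrimidines. Binding data analysed by nonlinear regression.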

[2] = target: T2, human GAL2 receptor (Homo sapiens, UniProt O43603); test: Radioligand binding at cloned human GAL2 receptor; conditions: read-out: Ki GalR2
T2 construct: expressed in transfected cells
T2 sequence (O43603 1-387): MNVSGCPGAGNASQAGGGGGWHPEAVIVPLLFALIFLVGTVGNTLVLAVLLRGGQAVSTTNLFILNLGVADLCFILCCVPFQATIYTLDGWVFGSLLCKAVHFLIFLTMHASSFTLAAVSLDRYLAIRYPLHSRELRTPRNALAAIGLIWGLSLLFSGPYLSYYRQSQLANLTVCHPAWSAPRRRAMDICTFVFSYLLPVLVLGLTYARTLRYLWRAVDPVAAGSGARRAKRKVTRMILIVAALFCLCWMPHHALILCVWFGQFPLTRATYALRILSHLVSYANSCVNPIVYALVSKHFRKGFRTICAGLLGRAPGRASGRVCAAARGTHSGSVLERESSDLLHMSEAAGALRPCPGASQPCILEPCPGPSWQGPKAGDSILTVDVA
Method: The binding properties of the pyrimidines of the present invention were evaluated at the cloned human galanin receptors, GAL1, GAL2, and GAL3, using protocols described herein.
The binding properties of the indolones of the present invention were evaluated at the cloned human galanin receptors, GAL1, GAL2, and GAL3, using protocols described herein.
(§1) LM(tk-) cells were stably transfected with the human GAL1 or GAL3 receptor. CHO cells were stably transfected with the human GAL2 receptor.
(§2) cDNAs for the human and rat GAL1, and human and rat GAL3 receptors were transfected with a G-418 resistant gene into the mouse fibroblast LM(tk-) cell line by a calcium phosphate transfection method (Cullen, 1987). Stably transfected cells were selected with G-418. Human and rat GAL2 receptors were similarly transfected into CHO cells.
(§3) Membranes were harvested from stably transfected LM(tk-) cells. Adherent cells were washed twice in ice-cold phosphate buffered saline (138 mM NaCl, 8.1 mM Na2HPO4, 2.5 mM KCl, 1.2 mM KH2PO4, 0.9 mM CaCl2, 0.5 mM MgCl2, pH 7.4) and lysed by sonication in ice-cold sonication buffer (20 mM Tris-HCl, 5 mM EDTA, pH 7.7). Large particles and debris were cleared by low speed centrifugation (200 x g, 5 min, 4°C). Membranes were collected from the supernatant fraction by centrifugation (32,000 x g, 18 min, 4°C), washed with ice-cold hypotonic buffer, and collected again by centrifugation (32,000 x g, 18 min, 4°C). The final membrane pellet was resuspended by sonication into a small volume of ice-cold binding buffer (-1 ml for every 5 plates: 10 mM NaCl, 20 mM HEPES, 0.22 mM KH2PO4, 1.26 mM CaCl2, 0.81 mM MgSO4, pH 7.4). Protein concentration was measured by the Bradford method (Bradford, 1976) using Bio-Rad Reagent, with bovine serum albumin as a standard. Membranes were held on ice for up to one hour and used fresh, or flash frozen and stored in liquid nitrogen. Membranes were prepared similarly from CHO cells.
(§4) Galanin Recentors: Binding assays were performed according to the following published methods: human GAL3 (PCT International Publication No. WO 98/15570), human GAL1 (PCT International Publication No. WO 95/2260), human GAL2 (PCT International Publication No. WO 97/26853).
(§5) Binding data were analyzed using nonlinear regression and statistical techniques available in the GraphPAD Prism package (San Diego, CA). Enzymatic assay data were derived from a standard curve of reference compound data.

[3] = target: T3, human GAL1 receptor (Homo sapiens, UniProt P47211); test: Radioligand binding at cloned human GAL1 receptor; conditions: read-out: Ki GalR1
T3 construct: expressed in transfected cells
T3 sequence (P47211 1-349): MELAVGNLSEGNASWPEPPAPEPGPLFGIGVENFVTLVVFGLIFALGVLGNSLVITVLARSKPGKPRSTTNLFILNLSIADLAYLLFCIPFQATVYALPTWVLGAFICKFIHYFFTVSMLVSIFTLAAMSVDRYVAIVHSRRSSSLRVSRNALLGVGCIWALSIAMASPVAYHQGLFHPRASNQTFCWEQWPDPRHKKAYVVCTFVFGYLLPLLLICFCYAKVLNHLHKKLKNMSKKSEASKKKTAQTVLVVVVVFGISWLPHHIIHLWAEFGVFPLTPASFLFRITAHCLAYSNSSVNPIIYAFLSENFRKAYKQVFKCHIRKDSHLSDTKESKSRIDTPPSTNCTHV
Method: The binding properties of the pyrimidines of the present invention were evaluated at the cloned human galanin receptors, GAL1, GAL2, and GAL3, using protocols described herein. […]
as §1, §2, §3, §4, §5

Structure (SMILES) | Ki ([1]; pyrimidines) [nM] | Ki ([2]; pyrimidines) [nM] | Ki ([3]; pyrimidines) [nM] | Ki ([1]; indolones) [nM] | Ki ([2]; indolones) [nM] | Ki ([3]; indolones) [nM]
Cc1ccc(Nc2cc(N3CCCCC3)nc(N3CCc4ccccc4C3)n2)cc1 [Example 41] | 151 | 840 | 2130 | – | – | –
Cc1ccc(Nc2cc(N3CCCCC3)nc(N(C)C(C)Cc3c[nH]c4ccccc34)n2)cc1 (stereo not drawn) [Example 21] | 49 | 1100 | 4790 | – | – | –
Cc1cc(Nc2cc(N(C)C)nc(Nc3ccccc3)n2)ccc1Cl [Example 61] | 753 | > 5000 | > 5000 | – | – | –
Cc1ccc(Nc2cc(N(C)C)nc(NCCc3c[nH]c4ccccc34)n2)cc1 [Example 76] | 392 | 1660 | 3800 | – | – | –
Cc1cc(C)cc(N=C2C(=O)N(c3ccccc3)c3ccccc32)c1 [Example 104] | – | – | – | 143 | > 10000 | > 10000
O=C1C(=Nc2ccc(Oc3ccccc3)cc2)c2ccccc2N1c1ccccc1 [Example 100, 3-[(4-PHENOXYPHENYL)IMINO]-1-PHENYL-1,3-DIHYDRO-2H-INDOL-2-ONE] | – | – | – | 90 | > 10000 | > 10000
CN(C)c1cc(NC2CC3CCC2C3)nc(Nc2ccccc2)n1 (stereo not drawn) [Example 69] | 417 | > 5000 | > 5000 | – | – | –
CN(C)c1cc(Nc2ccc(Cl)cc2)nc(Nc2ccccc2)n1 [Example 58] | 783 | > 5000 | > 5000 | – | – | –
Cc1ccc(Nc2cc(N(C)C)nc(N3CCOCC3c3ccccc3)n2)cc1 (stereo not drawn) [Example 82] | 232 | > 5000 | > 5000 | – | – | –
C=CCN1C(=O)C(=Nc2ccc(Cl)c(Cl)c2)c2ccccc21 [Example 105, 1-ALLYL-3-[(3,4-DICHLOROPHENYL)IMINO]-1,3-DIHYDRO-2H-INDOL-2-ONE] | – | – | – | 97 | > 10000 | > 10000
Cc1ccc(Nc2cc(N3CCN(c4ncccc4C(F)(F)F)CC3)nc(N3CCCCC3)n2)cc1 [Example 89] | 105 | 1270 | 1120 | – | – | –
Cc1ccc(Nc2cc(N3CCCCC3)nc(N3CCN(c4cccc(C(F)(F)F)c4)CC3)n2)cc1 [Example 29] | 46 | 359 | 716 | – | – | –
C=CCN1C(=O)C(=Nc2cc(Cl)cc(Cl)c2)c2ccccc21 [Example 106, 1-ALLYL-3-[(3,5-DICHLOROPHENYL)IMINO]-1,3-DIHYDRO-2H-INDOL-2-ONE] | – | – | – | 62 | > 10000 | > 10000
COc1ccc(N=C2C(=O)N(c3ccccc3)c3ccccc32)cc1 [Example 102, 3-[(4-METHOXYPHENYL)IMINO]-1-PHENYL-1,3-DIHYDRO-2H-INDOL-2-ONE] | – | – | – | 429 | > 10000 | > 10000
CC(C)N1C(=O)C(=Nc2ccc(Br)cc2)c2ccccc21 [Example 107, 3-[(4-BROMOPHENYL)IMINO]-1-ISOPROPYL-1,3-DIHYDRO-2H-INDOL-2-ONE] | – | – | – | 126 | > 10000 | > 10000
Cc1ccc(Nc2cc(N3CCCCC3)nc(N3CCO[C@@H](c4ccccc4)[C@H]3C)n2)cc1 [Example 48] | 120 | 4230 | > 5000 | – | – | –
CC1CCC(Nc2cc(N(C)C)nc(Nc3ccccc3)n2)CC1 (stereo not drawn) [Example 67] | 752 | > 5000 | > 5000 | – | – | –
O=C1C(=Nc2ccc(F)cc2)c2ccccc2N1c1ccccc1 [Example 99, 3-[(4-FLUOROPHENYL)IMINO]-1-PHENYL-1,3-DIHYDRO-2H-INDOL-2-ONE] | – | – | – | 229 | > 10000 | > 10000
COCCN(c1nc(Nc2ccc(C)cc2)cc(N(C)C)n1)C1CCCCC1 [Example 74] | 47 | 468 | 2290 | – | – | –
Cc1ccc(Nc2cc(N3CCCCC3)nc(Nc3ccc(Cl)cc3)n2)cc1 [Example 5] | 345 | > 5000 | > 5000 | – | – | –
Cc1ccc(N=C2C(=O)N(c3ccccc3)c3ccccc32)cc1 [Example 96] | – | – | – | 111 | > 10000 | > 10000
CN(C)c1cc(NC2CC3CCC2(C)C3(C)C)nc(Nc2ccccc2)n1 (stereo not drawn) [Example 70] | 476 | 944 | > 5000 | – | – | –
